Source: patent US20080103152A1, “Novel Diazabicyclononene Derivative” (Actelion Pharmaceuticals Ltd, priority 2004, published 2008)

Assays:
recombinant human renin = target: T1, recombinant human renin (Homo sapiens, UniProt P00797); assay: Primary renin inhibition assay: IC50 in buffer, 384 well MTP (Ang I measured by EIA); type: biochemical; conditions: human tetradecapeptide substrate, 37° C. for 3 h, read-out: IC50 of renin inhibition (Ang I decrease)
T1 sequence (P00797 67-406): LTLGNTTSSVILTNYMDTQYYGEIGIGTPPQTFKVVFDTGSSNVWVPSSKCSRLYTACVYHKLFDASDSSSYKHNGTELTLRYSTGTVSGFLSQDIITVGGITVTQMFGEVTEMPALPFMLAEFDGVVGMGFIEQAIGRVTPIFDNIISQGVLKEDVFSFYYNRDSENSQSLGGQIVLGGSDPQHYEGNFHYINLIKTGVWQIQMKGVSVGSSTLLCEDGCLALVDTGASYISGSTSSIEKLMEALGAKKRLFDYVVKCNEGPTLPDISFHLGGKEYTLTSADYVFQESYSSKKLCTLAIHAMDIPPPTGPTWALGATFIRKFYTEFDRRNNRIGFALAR
Description: 1. Enzyme Immuno Assay (EIA) to Estimate Ang I Accumulation and Renin Inhibition
1.1 Preparation of Ang I-BSA Conjugate
1.3 mg (1 μmol) of Ang I [1-10 (Bachem, H-1680)] and 17 mg (0.26 μmol) of BSA (Fluka, 05475) were dissolved in 4 mL of 0.1M phosphate buffer, pH 7.4, after which 2 mL of a 1:100 dilution of glutaraldehyde in H2O (Sigma G-5882) was added dropwise. The mixture was incubated overnight at 4° C., then dialyzed against 2 liters of 0.9% NaCl, twice for 4 h at rt, followed by dialysis against 2 liters of PBS 1× overnight at rt. The solution was then filtered with a Syringe filter, 0.45 μm (Nalgene, Cat. No. 194-2545). The conjugate can be stored in polypropylene tubes in 0.05% sodium azide at 4° C. for at least 12 months.
1.2 Preparation of BSA-Ang I Coated MTP […]
The renin assay was adapted from an assay described before (Fischli W. et al., Hypertension, 1991, 18:22-31) and consists of two steps: in the first step, recombinant human renin is incubated with its substrate (commercial human tetradecapeptide renin substrate) to create the product Angiotensin I (Ang I). In the second step, the accumulated Ang I is measured by an immunological assay (enzyme immuno assay, EIA). […]

[1] = tested on: double transgenic rats with human renin and human angiotensinogen; assay: Hemodynamic measurements (telemetry method), mean arterial blood pressure; type: in vivo, rat; conditions: for blood pressure decrease (maximal decrease of mean arterial pressure versus control group): hypertensive female double transgenic rats
Description: Hemodynamic Measurements (Telemetry Method)
Animals—Female double transgenic rats with human renin and human angiotensinogen were purchased from RCC Ltd, Füllingsdorf, Switzerland. All animals were maintained under identical conditions and had free access to normal pelleted rat chow and water. Rats were initially treated with enalapril (1 mg/kg/day) during 2 months. After approximately two weeks following cessation of enalapril treatment the double transgenic rats become hypertensive and reach mean arterial blood pressures in the range of 160-170 mmHg.
Transmitter implantation—The rats were anaesthetised with a mixture of 90 mg/kg Ketamin-HCl (Ketavet, Parke-Davis, Berlin FRG) and 10 mg/kg xylazin (Rompun, Bayer, Leverkusen, FRG) i.p. The pressure transmitter was implanted under aseptic conditions into the peritoneal cavity with the sensing catheter placed in the descending aorta below the renal arteries pointing upstream. The transmitter was sutured to the abdominal musculature and the skin closed.
Telemetry-System—Telemetry units were obtained from Data Sciences (St. Paul, Minn.). […] The tip of the catheter was filled with a viscous gel that prevents blood reflux and was coated with an antithrombogenic film to inhibit thrombus formation. The implants (length=[…], diameter=1.2 cm) weighted 9 g and have a typical battery life of 6 months. A receiver platform (RPC-1, Data Sciences) connected the radio signal to digitized input that was sent to a dedicated personal computer (Compaq, deskpro). Arterial pressures were calibrated by using an input from an ambient-pressure reference (APR-1, Data Sciences). Systolic, mean and diastolic blood pressure was expressed in millimeter of mercury (mmHg).
[…] The effect of the test substance is expressed as maximal decrease of mean arterial pressure (MAP) in the treated group versus the control group.

O=C(C1=C(c2ccc(CCCOc3c(F)ccc(F)c3Cl)cc2)C[C@@H]2CNC[C@H]1N2)N(Cc1cccc(Cl)c1Cl)C1CC1 [Compound (I′), (1R,5S)-7-{4-[3-(2-Chloro-3,6-difluorophenoxy)propyl]phenyl}-3,9-diazabicyclo[3.3.1]non-6-ene-6-carboxylic acid cyclopropyl-(2,3-dichlorobenzyl)amide]
IC50 (recombinant human renin): 0.5 nM
activity in the animal model (in words) ([1]; oral gavage, double transgenic rats): active
blood pressure decrease (maximal decrease of mean arterial pressure versus control group) ([1]; single oral dose of 3 mg/kg): 13 mmHg
blood pressure decrease (maximal decrease of mean arterial pressure versus control group) ([1]; single oral dose of 10 mg/kg): 26 mmHg
